{"source": "ChEMBL document CHEMBL1156449", "about": "“The nucleoside analog sangivamycin induces apoptotic cell death in breast carcinoma MCF7/adriamycin-resistant cells via protein kinase Cdelta and JNK activation” (J Biol Chem, 2007)", "key": {"MCF/ADR [1]": {"test_system": "MCF/ADR", "test": "Induction of c-Jun expression in human multidrug resistant MCF/ADR cells at 0.3 uM", "format": "functional, cell-based"}, "[2]": {"test": "Cell cycle arrest in human drug-sensitive MCF/WT cells assessed as accumulation at G0/G1 phase at 0.3 uM after 24 hrs by propidium fluorescence flow cytometry", "format": "functional, cell-based"}, "MCF/ADR [3]": {"test_system": "MCF/ADR", "test": "Increase in Bcl-2 levels in human multidrug resistant MCF/ADR cells at 0.3 uM by immunoblot analysis", "format": "functional, cell-based"}, "MCF/ADR [4]": {"test_system": "MCF/ADR", "test": "Reduction in induction of apoptosis in human multidrug resistant MCF/ADR cells assessed as suppression of caspase 9 activation at 0.3 uM after 48 hrs by immunoblot analysis in presence of rottlerin", "format": "functional, cell-based"}, "[5]": {"biological_target": "Bcl-2-like protein 1 (Homo sapiens) (UniProt Q07817)", "sequence (Q07817 whole entry)": "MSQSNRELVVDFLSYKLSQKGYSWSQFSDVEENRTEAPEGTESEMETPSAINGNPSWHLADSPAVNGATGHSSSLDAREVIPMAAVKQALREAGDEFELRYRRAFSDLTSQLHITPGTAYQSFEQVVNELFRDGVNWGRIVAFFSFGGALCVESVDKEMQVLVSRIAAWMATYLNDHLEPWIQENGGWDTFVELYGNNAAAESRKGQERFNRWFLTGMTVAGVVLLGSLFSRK", "test": "Inhibition of induction of Bcl-x/s phosphorylation in human multidrug resistant MCF/ADR cells at 0.3 uM after 48 hrs in presence of rottlerin", "format": "functional, cell-based"}, "MCF/WT [6]": {"test_system": "MCF/WT", "test": "Increase in Bcl-2 levels in human drug-sensitive MCF/WT cells at 0.3 uM by immunoblot analysis", "format": "functional, cell-based"}, "MCF/WT [7]": {"test_system": "MCF/WT", "test": "Increase in Bcl-x/s levels in human drug-sensitive MCF/WT cells at 0.3 uM by immunoblot analysis", "format": "functional, cell-based"}, "MCF/ADR [8]": {"test_system": "MCF/ADR", "test": "Induction of apoptosis in human multidrug resistant MCF/ADR cells assessed as activation of caspase 6 at 0.3 uM by immunoblot analysis", "format": "functional, cell-based"}, "[9]": {"test": "Cell cycle arrest in human drug-sensitive MCF/WT cells assessed as accumulation at G2/M phase at 0.3 uM after 48 hrs by propidium fluorescence flow cytometry", "format": "functional, cell-based"}, "[10]": {"test": "Cell cycle arrest in human drug-sensitive MCF/WT cells assessed as accumulation at sub G0/G1 phase at 0.3 uM after 72 hrs by propidium fluorescence flow cytometry", "format": "functional, cell-based"}, "MCF/ADR [11]": {"test_system": "MCF/ADR", "test": "Cytocidal effect in human multidrug resistant MCF/ADR cells assessed as decrease in number of viable cells at 0.1 uM after 1 hr measured after 72 hrs in absence of drug by MTT colorimetric assay", "format": "functional, cell-based"}, "MCF/ADR [12]": {"test_system": "MCF/ADR", "test": "Decrease in p53 accumulation in human multidrug resistant MCF/ADR cells at 0.3 uM after 72 hrs by immunoblot analysis", "format": "functional, cell-based"}, "MCF/ADR [13]": {"test_system": "MCF/ADR", "test": "Induction of apoptosis in human multidrug resistant MCF/ADR cells assessed as activation of caspase 7 at 0.3 uM by immunoblot analysis", "format": "functional, cell-based"}, "MCF/ADR [14]": {"test_system": "MCF/ADR", "test": "Reduction of lamin A cleavage in human multidrug resistant MCF/ADR cells transfected with c-Jun siRNA at 0.3 uM after 48 hrs by immunoblot analysis", "format": "functional, cell-based"}, "MCF/WT [15]": {"test_system": "MCF/WT", "test": "Cytostatic effect in human drug sensitive MCF/WT cells assessed as slight increase in number of viable cells at 0.1 uM after 1 hr measured after 72 hrs in absence of drug by MTT colorimetric assay", "format": "functional, cell-based"}, "[16]": {"biological_target": "Transcription factor Jun (Homo sapiens) (UniProt P05412)", "sequence (P05412 whole entry)": "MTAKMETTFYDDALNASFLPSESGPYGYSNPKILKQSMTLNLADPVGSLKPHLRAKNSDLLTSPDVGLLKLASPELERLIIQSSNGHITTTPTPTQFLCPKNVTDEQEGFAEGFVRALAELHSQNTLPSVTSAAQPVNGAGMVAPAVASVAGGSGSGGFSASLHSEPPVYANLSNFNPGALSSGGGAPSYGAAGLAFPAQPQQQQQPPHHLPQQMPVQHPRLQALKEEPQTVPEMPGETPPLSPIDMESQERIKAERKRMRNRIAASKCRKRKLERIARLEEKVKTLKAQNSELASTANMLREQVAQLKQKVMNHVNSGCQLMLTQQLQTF", "test": "Reduction in induction of c-Jun expression in human multidrug resistant MCF/ADR cells at 0.3 uM after 48 hrs by immunoblot analysis in presence of caspase 9 inhibitor", "format": "cell-based"}, "MCF/ADR [17]": {"test_system": "MCF/ADR", "test": "Reduction of […] cleavage in human multidrug resistant MCF/ADR cells transfected with c-Jun siRNA at 0.3 uM after 48 hrs by immunoblot analysis", "format": "functional, cell-based"}, "[18]": {"test": "Cell cycle arrest in human multidrug resistant MCF/ADR cells assessed as accumulation at G0/G1 phase at 0.3 uM after 24 hrs by propidium fluorescence flow cytometry", "format": "functional, cell-based"}, "[19]": {"test": "Inhibition of nuclear protein kinase 2"}, "MCF/ADR [20]": {"test_system": "MCF/ADR", "test": "Inhibition of induction of apoptosis in human multidrug resistant MCF/ADR cells assessed as inhibition of cleavage of PARP at 0.3 uM after 48 hrs by immunoblot analysis in presence of caspase 9-specific inhibitor", "format": "functional, cell-based"}, "MCF/ADR [21]": {"test_system": "MCF/ADR", "test": "Cytocidal effect in human multidrug resistant MCF/ADR cells assessed as decrease in number of viable cells at 0.1 uM after 72 hrs by MTT colorimetric assay", "format": "functional, cell-based"}, "[22]": {"test": "Cell cycle arrest in human multidrug resistant MCF/ADR cells assessed as accumulation at G2/M phase at 0.3 uM after 48 hrs by propidium fluorescence flow cytometry", "format": "functional, cell-based"}, "[23]": {"test": "Cell cycle arrest in human multidrug resistant MCF/ADR cells assessed as accumulation at G2/M phase at 0.3 uM after 24 hrs by propidium fluorescence flow cytometry", "format": "functional, cell-based"}, "[24]": {"test": "Cell cycle arrest in human drug-sensitive MCF/WT cells assessed as accumulation at S phase at 0.3 uM after 48 hrs by propidium fluorescence flow cytometry", "format": "functional, cell-based"}, "[25]": {"test": "Cell cycle arrest in human drug-sensitive MCF/WT cells assessed as accumulation at G0/G1 phase at 0.3 uM after 72 hrs by propidium fluorescence flow cytometry", "format": "functional, cell-based"}, "[26]": {"test": "Cell cycle arrest in human multidrug resistant MCF/ADR cells assessed as accumulation at G2/M phase at 0.3 uM after 72 hrs by propidium fluorescence flow cytometry", "format": "functional, cell-based"}, "[27]": {"test": "Cell cycle arrest in human drug-sensitive MCF/WT cells assessed as accumulation at sub G0/G1 phase at 0.3 uM after 24 hrs by propidium fluorescence flow cytometry", "format": "functional, cell-based"}, "MCF/ADR [28]": {"test_system": "MCF/ADR", "test": "Increase in Bax levels in human multidrug resistant MCF/ADR cells at 0.3 uM by immunoblot analysis", "format": "functional, cell-based"}, "MCF/ADR [29]": {"test_system": "MCF/ADR", "test": "Reduction in induction of apoptosis in SP600125 pretreated human multidrug resistant MCF/ADR cells assessed as reduction of cleavage of PARP at 0.3 uM after 48 hrs by immunoblot analysis", "format": "functional, cell-based"}, "MDA-MB-468": {"test_system": "MDA-MB-468", "test": "Induction of apoptosis in human multidrug resistant MDA-MB-468 cells assessed as accumulation of PARP at 0.3 uM after 48 hrs by immunoblot analysis", "format": "functional, cell-based"}, "MCF/WT [30]": {"test_system": "MCF/WT", "test": "Induction of apoptosis in human drug-sensitive MCF/WT cells assessed as activation of caspase 6 at 0.3 uM by immunoblot analysis", "format": "functional, cell-based"}, "MCF/WT [31]": {"test_system": "MCF/WT", "test": "Induction of apoptosis in human drug-sensitive MCF/WT cells assessed as cleavage of caspase 9 at 0.3 uM by immunoblot analysis", "format": "functional, cell-based"}, "[32]": {"biological_target": "c-Jun N-terminal kinase, JNK (Homo sapiens) (UniProt P45983+P53779+P45984)", "test": "Inhibition of induction of JNK phosphorylation in human multidrug resistant MCF/ADR cells at 0.3 uM after 48 hrs by immunocytochemical analysis in presence of rottlerin", "format": "cell-based"}, "[33]": {"test": "Cell cycle arrest in human drug-sensitive MCF/WT cells assessed as accumulation at G0/G1 phase at 0.3 uM after 48 hrs by propidium fluorescence flow cytometry", "format": "functional, cell-based"}, "MCF/ADR [34]": {"test_system": "MCF/ADR", "test": "Inhibition of induction of apoptosis in human multidrug resistant MCF/ADR cells assessed as inhibition of cleavage of lamin A at 0.3 uM after 48 hrs by immunoblot analysis in presence of pan-specific inhibitor", "format": "functional, cell-based"}, "[35]": {"biological_target": "Transcription factor Jun (Homo sapiens) (UniProt P05412)", "test": "Reduction in induction of non phosphorylated form of c-Jun in SP600125 pretreated human multidrug resistant MCF/ADR cells at 0.3 uM after 48 hrs by immunoblot analysis", "format": "cell-based"}, "MCF/ADR [36]": {"test_system": "MCF/ADR", "test": "Induction of apoptosis in human multidrug resistant MCF/ADR cells assessed as activation of caspase 9 at 0.3 uM by immunoblot analysis", "format": "functional, cell-based"}, "MCF/ADR [37]": {"test_system": "MCF/ADR", "test": "Blockade of apoptosis induction in human multidrug resistant MCF/ADR cells at 0.3 uM after 48 hrs in presence of SP600125", "format": "functional, cell-based"}}, "note": "Calls of active or inactive are those of the source. No cut-off for these calls is given here.", "data": [{"compound": "NC(=O)c1cn([C@@H]2O[C@H](CO)[C@@H](O)[C@H]2O)c2ncnc(N)c12", "note": "[SANGIVAMYCIN]", "values": [{"measurement": "Activity", "setting": "MCF/ADR [1]", "value": "Active"}, {"measurement": "Activity", "setting": "[2]", "value": 48, "unit": "%"}, {"measurement": "Activity", "setting": "MCF/ADR [3]", "value": "inactive"}, {"measurement": "Activity", "setting": "MCF/ADR [4]", "value": "Active"}, {"measurement": "Activity", "setting": "[5]", "value": "Active"}, {"measurement": "Activity", "setting": "MCF/WT [6]", "value": "Active"}, {"measurement": "Activity", "setting": "MCF/WT [7]", "value": "Active"}, {"measurement": "Activity", "setting": "MCF/ADR [8]", "value": "Active"}, {"measurement": "Activity", "setting": "[9]", "value": 27, "unit": "%"}, {"measurement": "Activity", "setting": "[10]", "value": 4, "unit": "%"}, {"measurement": "Activity", "setting": "MCF/ADR [11]", "value": "Active"}, {"measurement": "Activity", "setting": "MCF/ADR [12]", "value": "Active"}, {"measurement": "Activity", "setting": "MCF/ADR [13]", "value": "Active"}, {"measurement": "Activity", "setting": "MCF/ADR [14]", "value": "inactive"}, {"measurement": "Activity", "setting": "MCF/WT [15]", "value": "Active"}, {"measurement": "Activity", "setting": "[16]", "value": "inactive"}, {"measurement": "Activity", "setting": "MCF/ADR [17]", "value": "inactive"}, {"measurement": "Activity", "setting": "[18]", "value": 33, "unit": "%"}, {"measurement": "Ki", "setting": "[19]", "value": 100, "unit": "µM"}, {"measurement": "Activity", "setting": "MCF/ADR [20]", "value": "Active"}, {"measurement": "Activity", "setting": "MCF/ADR [21]", "value": "Active"}, {"measurement": "Activity", "setting": "[22]", "value": 17, "unit": "%"}, {"measurement": "Activity", "setting": "[23]", "value": 33, "unit": "%"}, {"measurement": "Activity", "setting": "[24]", "value": 9, "unit": "%"}, {"measurement": "Activity", "setting": "[25]", "value": 57, "unit": "%"}, {"measurement": "Activity", "setting": "[26]", "value": 8, "unit": "%"}, {"measurement": "Activity", "setting": "[27]", "value": 1, "unit": "%"}, {"measurement": "Activity", "setting": "MCF/ADR [28]", "value": "Active"}, {"measurement": "Activity", "setting": "MCF/ADR [29]", "value": "Active"}, {"measurement": "Activity", "setting": "MDA-MB-468", "value": "Active"}, {"measurement": "Activity", "setting": "MCF/WT [30]", "value": "inactive"}, {"measurement": "Activity", "setting": "MCF/WT [31]", "value": "inactive"}, {"measurement": "Activity", "setting": "[32]", "value": "Active"}, {"measurement": "Activity", "setting": "[33]", "value": 61, "unit": "%"}, {"measurement": "Activity", "setting": "MCF/ADR [34]", "value": "Active"}, {"measurement": "Activity", "setting": "[35]", "value": "Active"}, {"measurement": "Activity", "setting": "MCF/ADR [36]", "value": "Active"}, {"measurement": "Activity", "setting": "MCF/ADR [37]", "value": "Active"}]}]}
